Test results as given in ChEMBL document CHEMBL3259716, “The evolution of amidine-based brain penetrant BACE1 inhibitors” (Bioorg Med Chem Lett, 2014).

Key:
[1] = Dissociation constant, pKa of the compound; format: physicochemical
[2] = Plasma concentration in Sprague-Dawley rat at 10 mg/kg, po measured at 6 hrs by LC-MS/MS analysis; format: ADME, organism-based; parameters: dose 10 mg/kg, route oral
Nucleic Acid = experiment: Ratio of drug level in brain to plasma in Sprague-Dawley rat at 10 mg/kg, po measured at 6 hrs; format: ADME, organism-based; parameters: dose 10 mg/kg, route oral
[3] = Drug uptake in Sprague-Dawley rat brain at 10 mg/kg, po measured at 6 hrs by LC-MS/MS analysis; format: ADME, organism-based; parameters: dose 10 mg/kg, route oral; settings: read-out: Drug uptake

| pKa [1] | concentration at 6 h [2] [µM] | BPR (Nucleic Acid) | concentration at 6 h [3] [µM] | Structure (SMILES) |
| --- | --- | --- | --- | --- |
| 5.3 |  |  |  | COc1cccc(-c2cccc([C@@]3(c4ccncc4)N=C(N)N4CC(F)(F)CN=C43)c2)c1F |
| 6.5 |  |  |  | NC1=N[C@](c2ccc(OC(F)F)cc2)(c2cccc(OCCF)c2)C2=NCC(F)(F)CN12 |
|  | 0.57 | 0.7 | 0.57 | NC1=N[C@@]2(c3cc(NC(=O)c4cnc(C(F)F)cn4)ccc3F)CO[C@H](CF)[C@H]2CS1 |
|  | 0.229 | 3.7 | 0.845 | NC1=N[C@@]2(c3cc(NC(=O)c4cnc(CF)cn4)ccc3F)CO[C@H](C(F)(F)F)[C@H]2CS1 |
